Results from publication PMC10692163, “Structure-based discovery of novel P-glycoprotein inhibitors targeting the nucleotide binding domains” (Scientific Reports, 2023).
Where two headings read alike, the source gives them in different places.

Tests used:
[1] = test system: P-gp nucleotide binding domain; conditions: Table S1, supplement reference list, cited from earlier work
P-gp [2] = biological target: T1, P-gp (Homo sapiens, UniProt P08183); assay: Inhibition of verapamil-stimulated sensitive ATPase activity (ATP consumption) in P-gp expressing Sf9 vesicles; type: biochemical; design: purchased GenoMembrane Co., Ltd (Kanagawa, Japan); host or cells: Sf9 insect cells infected with baculovirus; purified plasma membrane vesicles; conditions: for IC50: 50 µM verapamil
Description: P-gp-mediated drug transport across membranes is driven by energy derived from hydrolysis of ATP. It is, therefore, possible to evaluate drug binding to P-gp by determining the ATPase activity. The method was modified from the procedure reported by Sarkadi et al.[64]. Briefly, solutions of test compounds and positive and negative controls in a reaction medium containing 50 mM MOPS-Tris (pH 7.4), 0.1 mM EGTA, 2 mM DDT, 50 mM KCl, 5 mM sodium azide, and 1 mM ouabain were incubated on ice in a 96 well plate. Then P-gp containing membrane vesicles to a final concentration of 0.5 mg/ml were added on ice to each well. […] Then, the ATPase reaction was started by the addition of MgATP to a final concentration of 5 mM and the plates with vesicles were incubated at 37 ^∘ C for 60 min. The reaction was stopped by the addition of a 10% SDS solution and the amount of inorganic phosphate was determined immediately by addition of a coloring solution containing final concentrations of 8 mM ascorbic acid, 10 mM zinc acetate, and 7 mM ammonium molybdate. The wells were then incubated at 37 ^∘ C for 20 min and the absorbance was scanned at wave lengths from 630 to 850 nm, and 740 nm was used for calculation of ATP consumption based on a phosphate standard curve freshly made with each experiment. To estimate sensitive ATPase activity mediated by P-gp, all experiments were conducted with no compound controls (2% DMSO), positive controls and background controls in which no stop solution was added, all in the absence and presence of 500 µM vanadate. The absorbance measured for a test condition was converted to nmol inorganic phosphate and normalized for reaction time and protein amount. The sensitive ATPase activity was then obtained by subtracting the inorganic phosphate generated in the presence of 500 µM vanadate at otherwise similar conditions.
(§1) Calcein fluorescence in arbitrary unit (a.u) corrected for background signal, which was the signal obtained from the cells incubated with HBSS ^7.4+ or HBSS ^5.5+ without calcein-AM, was plotted as a function of time and slopes (denoted m below) were obtained by linear regression. The increase in fluorescent calcein is a surrogate marker of increased P-gp inhibition. The slope from curves of fluorescence as a function of time for a compound ( mcompound ) was normalized to the slope of fluorescence in cells exposed to HBSS ^7.4+ or HBSS ^5.5+ only (referred as control, mcontrol ).

P-gp [3] = biological target: T1, P-gp; design: method as in PMID 1356264, PMID 7911680, PMID 7772017, PMID 11121420; conditions: read-out: Binding affinity for ATP to P-gp; cited from earlier work
P-gp [4] = biological target: T1, P-gp; assay: Calcein-AM efflux assay in MDCKII MDR1 cells; type: cell-based; design: host or cells: MDCKII MDR1 cells
Description: Calcein-AM efflux experiments were performed on MDCKII MDR1 cells, which were seeded on black 96-well microplates. Before the experiments, media was removed from the wells and 50 µL pre-warmed HBSS ^7.4+ was added. After a 15 min incubation period, the HBSS ^7.4+ buffer was removed and 50 µL of solution containing P-gp inhibitor or test compound dissolved in HBSS ^7.4+ or HBSS ^5.5+ were added to the individual wells, followed by addition of 50 µL 10.0 µM calcein-AM giving a final calcein-AM concentration of 5.0 µM. Calcein-AM diffuses into the cell where it is either hydrolysed to a membrane-impermeable fluorescent calcein dye or extruded from the cell by P-gp[63]. Inhibiting P-gp increases the amount of calcein in the cell and a higher amount is hydrolysed to calcein, thus the fluorescence measured is increased. The highest concentration of each compound was added to a cell-containing well in the absence of calcein-AM to investigate if compounds were fluorescent themselves.
as §1

[5] = Sf9 vesicles expressing human P-gp, 5 mM MgATP, 60 min, 37 °C, read-out: ATP assay IC50

T1 sequence (P08183 whole entry): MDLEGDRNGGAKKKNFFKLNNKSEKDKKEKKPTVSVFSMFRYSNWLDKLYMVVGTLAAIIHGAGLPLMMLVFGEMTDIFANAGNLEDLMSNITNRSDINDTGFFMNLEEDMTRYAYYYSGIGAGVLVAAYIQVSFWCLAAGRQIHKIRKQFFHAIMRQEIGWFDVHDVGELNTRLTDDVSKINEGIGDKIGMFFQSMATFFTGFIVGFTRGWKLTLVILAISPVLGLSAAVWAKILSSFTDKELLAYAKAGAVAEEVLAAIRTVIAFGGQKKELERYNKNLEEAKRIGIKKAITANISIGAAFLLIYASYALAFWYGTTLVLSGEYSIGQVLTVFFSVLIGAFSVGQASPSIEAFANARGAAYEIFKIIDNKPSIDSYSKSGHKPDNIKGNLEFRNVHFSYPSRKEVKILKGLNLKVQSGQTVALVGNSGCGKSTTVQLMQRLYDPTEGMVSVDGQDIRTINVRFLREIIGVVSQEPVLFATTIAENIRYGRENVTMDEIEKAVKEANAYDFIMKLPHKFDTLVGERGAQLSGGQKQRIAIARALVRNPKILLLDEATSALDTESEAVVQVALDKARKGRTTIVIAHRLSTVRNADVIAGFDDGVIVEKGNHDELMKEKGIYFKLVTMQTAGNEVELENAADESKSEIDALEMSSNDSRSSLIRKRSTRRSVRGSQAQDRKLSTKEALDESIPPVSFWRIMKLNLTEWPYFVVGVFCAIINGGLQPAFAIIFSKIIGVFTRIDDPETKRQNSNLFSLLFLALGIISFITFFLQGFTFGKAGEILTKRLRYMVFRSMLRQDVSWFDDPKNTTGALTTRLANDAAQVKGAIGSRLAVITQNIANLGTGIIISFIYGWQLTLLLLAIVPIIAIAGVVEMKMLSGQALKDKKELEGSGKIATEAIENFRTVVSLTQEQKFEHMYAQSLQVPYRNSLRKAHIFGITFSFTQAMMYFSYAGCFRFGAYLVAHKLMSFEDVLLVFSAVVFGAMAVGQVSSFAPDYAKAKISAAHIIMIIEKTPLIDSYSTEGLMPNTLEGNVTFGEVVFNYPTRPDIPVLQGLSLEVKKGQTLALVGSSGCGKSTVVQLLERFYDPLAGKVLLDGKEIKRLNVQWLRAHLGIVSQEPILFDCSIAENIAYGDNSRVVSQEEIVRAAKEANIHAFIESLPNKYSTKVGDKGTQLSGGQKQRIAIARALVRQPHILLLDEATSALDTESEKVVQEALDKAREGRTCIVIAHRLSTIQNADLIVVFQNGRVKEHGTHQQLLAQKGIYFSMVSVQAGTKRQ

For `COc1cc(C2Oc3cc([C@H]4Oc5cc(O)cc(O)c5C(=O)[C@@H]4O)ccc3OC2CO)ccc1O` (some centres unmarked) [Silybin], the “Class (known P-gp NBD inhibitor)” value ([1]; ref [4]) is given as “Marginal”.

In the case of `O=C(O[C@@H]1Cc2c(O)cc(O)cc2O[C@@H]1c1cc(O)c(O)c(O)c1)c1cc(O)c(O)c(O)c1` [Epigallocatechingallate (EGCG), Epigallocatechingallate], the “Class (known P-gp NBD inhibitor)” value ([1]; ref [3]) is given as “Active”.

For `O=c1cc(-c2ccc(O)cc2)oc2cc(O)cc(O)c12` [Apigenin], the “Class (known P-gp NBD inhibitor)” value ([1]; ref [4]) is given as “Marginal”.

For Mitragynine, the “Class (known P-gp NBD inhibitor)” value ([1]; ref [6]) is listed as “Marginal”.

In the case of `C=C(CO)C1Cc2c(ccc3c(=O)c4c(oc23)COc2cc(OC)c(OC)cc2-4)O1` (centres unmarked) [6a,12a,-Dehydroamorphigenin], the “Class (known P-gp NBD inhibitor)” value ([1]; ref [1]) is given as “Marginal”.

For `COc1cc2c(cc1OC)CN(CCc1ccc(NC(=O)c3cc(OC)c(OC)cc3NC(=O)c3cnc4ccccc4c3)cc1)CC2` [Tariquidar], the “Effect on verapamil-stimulated sensitive P-gp ATPase activity” value (P-gp [2]; 1 µM Tariquidar plus 50 µM verapamil) was “reduced to the background buffer level” and the IC50 (P-gp [2]; [5]) was 0.11 µM.

For `COc1ccc(-c2oc3cc(O)cc(O)c3c(=O)c2O)cc1` [kaempferide], the “Class (known P-gp NBD inhibitor)” value ([1]; ref [4]) is given as “Marginal”.

For `Nc1ncnc2c1ncn2[C@@H]1O[C@H](COP(=O)(O)OP(=O)(O)OP(=O)(O)O)[C@@H](O)[C@H]1O` [ATP], the Kd (P-gp [3]) is given as 300 to 800 µM.

For `C=C(C)[C@H]1Cc2c(ccc3c2O[C@@H]2COc4cc(OC)c(OC)cc4[C@@H]2C3=O)O1` [Rotenone], the “Class (known P-gp NBD inhibitor)” value ([1]; ref [1]) is listed as “Active”.

In the case of `O=c1c(O)c(-c2ccccc2)oc2ccccc12` [3OH-flavone], the “Class (known P-gp NBD inhibitor)” value ([1]; ref [4]) is listed as “Marginal”.

For `O=c1cc(-c2ccccc2)oc2cc(O)cc(O)c12` [Chrysin], the “Class (known P-gp NBD inhibitor)” value ([1]; ref [1]) is listed as “Marginal”.

In the case of `C=C(CO)[C@H]1Cc2c(ccc3c2O[C@@H]2COc4cc(OC)c(OC)cc4[C@]2(O)C3=O)O1` [12a-Hydroxyamorphigenin], the “Class (known P-gp NBD inhibitor)” value ([1]; ref [1]) is listed as “Marginal”.

In the case of `O=c1c(O)c(-c2ccccc2)oc2cc(O)cc(O)c12` [Galangin], the “Class (known P-gp NBD inhibitor)” value ([1]; ref [4]) is listed as “Marginal”.

In the case of `Cn1cnnc1CC(NS(=O)(=O)N1CCC(C(C)(C)C)CC1)C(=O)O` (centres unmarked) [compound 10], the IC50 (P-gp [4]; MDCKII MDR1 cells, extracellular pH 5.5, 5.0 µM calcein-AM, read-out: Calcein-AM, pH 5.5 IC50) is reported as 127 µM, the IC50 (P-gp [4]; MDCKII MDR1 cells, extracellular pH 7.4, 5.0 µM calcein-AM, read-out: Calcein-AM, pH 7.4 IC50) is reported as 299 µM and the “Ability to inhibit calcein-AM efflux” value (P-gp [4]; at both pH 5.5 and pH 7.4) is reported as “ability to inhibit calcein-AM efflux at both pH 5.5 and pH 7.4”. The “Calcein-AM, pH 5.5 LogIC50” value (P-gp [4]; log of IC50 in µM, extracellular pH 5.5) was 2.10, the IC50 (P-gp [4]; log of IC50 in µM, extracellular pH 7.4, read-out: Calcein-AM, pH 7.4 Log IC50 (converted)) was 302 µM and the IC50 (P-gp [2]; [5]) was 332 µM. The IC50 (P-gp [2]; log of IC50 in µM, Sf9 vesicles, read-out: ATP assay Log IC50 (converted)) was 331 µM.

For `C=C(CO)[C@H]1Cc2c(ccc3c2O[C@@H]2COc4cc(OC)c(OC)cc4[C@@H]2C3=O)O1` [Amorphigenin], the “Class (known P-gp NBD inhibitor)” value ([1]; ref [1]) is listed as “Marginal”.

For `Oc1cc(O)c2c(c1)O[C@H](c1ccc(O)c(O)c1)[C@H](O)C2` [Epicatechin], the “Class (known P-gp NBD inhibitor)” value ([1]; ref [5]) is given as “Marginal”.

For `Oc1cc(O)c2c(c1)O[C@H](c1cc(O)c(O)c(O)c1)[C@H](O)C2` [Epigallocatechin], the “Class (known P-gp NBD inhibitor)” value ([1]; ref [1]) is given as “Marginal”.

For `COc1ccc(-c2coc3cc(O)cc(O)c3c2=O)cc1` [Biochanin A], the “Class (known P-gp NBD inhibitor)” value ([1]; ref [2]) is given as “Active”.

For `O=c1c(O)c(-c2ccc(O)cc2)oc2cc(O)cc(O)c12` [kaempferol], the “Class (known P-gp NBD inhibitor)” value ([1]; ref [4]) is given as “Marginal”.
